According to US9204653B2, “5-fluoro pyrimidine derivatives” (DOW AGROSCIENCES LLC, priority 2008, dated 2015):
Read-outs that look alike come from different tables or passages of the source.

Tested on: Mycosphaerella graminicola; Anamorph: Septoria tritici; Bayer Code SEPTTR
Assay: Leaf blotch of wheat, foliar fungicide treatment, one day protectant (1DP) or three day curative (3DC)
Assay type: in vivo, Septoria tritici on wheat plants (variety Yuma)
Conditions: Zymoseptoria tritici, percent control rating; for pest or weed control at 100 ppm: read-out: SEPTTR 3DC 100 ppm
[1] = 24 h, one day protectant (1DP), 25 ppm (first 1DP column), read-out: SETTTR 1DP 25 ppm
[2] = 24 h, one day protectant (1DP), 25 ppm as printed (second 1DP column), read-out: SETTTR 1DP 25 ppm
[3] = 72 h, three day curative (3DC), 25 ppm, read-out: SEPTTR 3DC 25 ppm

| SMILES | pest or weed control at 25 ppm [1] | pest or weed control at 25 ppm [2] | pest or weed control at 25 ppm [3] | pest or weed control at 100 ppm (72 h, three day curative (3DC)) |
| --- | --- | --- | --- | --- |
| COc1ncc(F)c(NNc2c(Cl)cccc2Cl)n1 [Compound 1055] | 0 to 25% | 0 to 25% | 0 to 25% | 0 to 25% |
| CNN(C)c1nc(OC)ncc1F [Compound 1056] | 0 to 25% | 0 to 25% | 26 to 50% | 26 to 50% |
| CONc1nc(OC)ncc1F [Compound 1058] | 0 to 25% | 0 to 25% | 0 to 25% | 0 to 25% |
| C=CCOc1ncc(F)c(NN)n1 [Compound 1059] | 0 to 25% | 0 to 25% | 0 to 25% | 26 to 50% |
| C=CCOc1ncc(F)c(N/N=C(\C)c2ccc(F)cc2)n1 [Compound 1060] | 0 to 25% | 0 to 25% | 0 to 25% | 0 to 25% |
| C=CCOc1ncc(F)c(N/N=C(\C)c2ccc(Cl)s2)n1 [Compound 1061] | 26 to 50% | 0 to 25% | 0 to 25% | 0 to 25% |
| C=CCOc1ncc(F)c(N/N=C/C2CC2)n1 [Compound 1062] | 0 to 25% | 0 to 25% | 0 to 25% | 0 to 25% |
| C=CCOc1ncc(F)c(N/N=C/C(C)=C/C)n1 [Compound 1063] | 0 to 25% | 0 to 25% | 0 to 25% | 0 to 25% |
| C=CCOc1ncc(F)c(N/N=C/c2ccco2)n1 [Compound 1064] | 0 to 25% | 0 to 25% | 0 to 25% | 0 to 25% |
| COc1ncc(F)c(N(C)O)n1 [Compound 1066] | 0 to 25% | 0 to 25% | 0 to 25% | 0 to 25% |
| COc1ncc(F)c(N(O)C(C)C)n1 [Compound 1067] | 0 to 25% | 0 to 25% | 0 to 25% | 0 to 25% |
| CN(Cc1ccc(Cl)cc1)c1nc(O)ncc1F [Compound 1068] | 0 to 25% | 0 to 25% | 0 to 25% | 0 to 25% |
| Cc1ccc(CN(C)c2nc(O)ncc2F)cc1 [Compound 1069] | 0 to 25% | 0 to 25% | 51 to 75% | 51 to 75% |
| COc1ccccc1CN(C)c1nc(O)ncc1F [Compound 1070] | 26 to 50% | 0 to 25% | 0 to 25% | 0 to 25% |
| CN(Cc1ccc(C(F)(F)F)cc1)c1nc(O)ncc1F [Compound 1071] | 0 to 25% | 26 to 50% | 26 to 50% | 26 to 50% |
| C=CCOc1ncc(F)c(NOCC)n1 [Compound 1072] | 0 to 25% | 0 to 25% | 0 to 25% | 0 to 25% |
| COc1ncc(F)c(NOCc2ccc([N+](=O)[O-])cc2)n1 [Compound 1073] | 26 to 50% | 0 to 25% | 0 to 25% | 0 to 25% |
| C=CCOc1ncc(F)c(NNc2cc(C)ccc2C)n1 [Compound 1074] | 0 to 25% | 0 to 25% | 0 to 25% | 26 to 50% |
| C=CCOc1ncc(F)c(NO[Si](C)(C)C(C)(C)C)n1 [Compound 1075] | 0 to 25% | 0 to 25% | 0 to 25% | 0 to 25% |
| COc1ccc(CONc2nc(OC)ncc2F)cc1 [Compound 1076] | 0 to 25% | 0 to 25% | 0 to 25% | 26 to 50% |
| C=CCOc1ncc(F)c(NNc2ccccc2F)n1 [Compound 1077] | 0 to 25% | 0 to 25% | 0 to 25% | 26 to 50% |
| C=CCOc1ncc(F)c(NNc2ccc(Br)cc2)n1 [Compound 1078] | 0 to 25% | 0 to 25% | 26 to 50% | 0 to 25% |
| COc1ncc(F)c(NO[Si](C)(C)C(C)(C)C)n1 [Compound 1079] | 0 to 25% | 0 to 25% | 0 to 25% | 0 to 25% |

| SMILES | pest or weed control at 25 ppm [1] | pest or weed control at 25 ppm [2] | pest or weed control at 25 ppm [3] | pest or weed control at 100 ppm (72 h, three day curative (3DC)) |
| --- | --- | --- | --- | --- |
| COc1ncc(F)c(N(O)Cc2ccccc2)n1 [Compound 1080] | 0 to 25% | 0 to 25% | 26 to 50% | 26 to 50% |
| COc1ncc(F)c(NOCCOc2ccccc2)n1 [Compound 1081] | 0 to 25% | 0 to 25% | 0 to 25% | 0 to 25% |
| Oc1ncc(F)c(NCOCc2ccccc2)n1 [Compound 1082] | 0 to 25% | 0 to 25% | 0 to 25% | 0 to 25% |
| CC(=O)OCOc1ncc(F)c(/N=C/N(C)C)n1 [Compound 1083] | 76 to 100% | 76 to 100% | 76 to 100% | 76 to 100% |
| CN(C)/C=N/c1nc(OCOC(=O)C2CCCC2)ncc1F [Compound 1084] | 76 to 100% | 76 to 100% | 76 to 100% | 76 to 100% |
| CN(C)/C=N/c1nc(OCOC(=O)c2ccccc2)ncc1F [Compound 1085] | 76 to 100% | 76 to 100% | 76 to 100% | 76 to 100% |
| C=CCOc1ncc(F)c(NNc2cccc(F)n2)n1 [Compound 1086] | 0 to 25% | 0 to 25% | 0 to 25% | 0 to 25% |
| C=CCOc1ncc(F)c(NOCc2ccccc2)n1 [Compound 1087] | 0 to 25% | 0 to 25% | 0 to 25% | 0 to 25% |
| C=CCOc1ncc(F)c(N(O)Cc2ccccc2)n1 [Compound 1088] | 0 to 25% | 26 to 50% | 0 to 25% | 0 to 25% |
| Cc1ccc(COc2ncc(F)c(/N=N/c3cc(C)ccc3C)n2)cc1 [Compound 1089] | 0 to 25% | 0 to 25% | 26 to 50% | 26 to 50% |
| Fc1ccc(COc2ncc(F)c(/N=N/c3ccc(Cl)c(Cl)c3)n2)cc1 [Compound 1090] | 0 to 25% | 0 to 25% | 26 to 50% | 26 to 50% |
| CC(C)(C)NNc1nc(O)ncc1F [Compound 1092] | 0 to 25% | 26 to 50% | 0 to 25% | 26 to 50% |
| NN(Cc1ccccc1)c1nc(O)ncc1F [Compound 1093] | 0 to 25% | 0 to 25% | 0 to 25% | 0 to 25% |
| Oc1ncc(F)c(N(O)Cc2ccccc2)n1 [Compound 1094] | 0 to 25% | 0 to 25% | 26 to 50% | 26 to 50% |
| Oc1ncc(F)c(NOCc2ccccc2)n1 [Compound 1095] | 0 to 25% | 0 to 25% | 0 to 25% | 0 to 25% |
| CON(C)c1nc(O)ncc1F [Compound 1096] | 0 to 25% | 0 to 25% | 0 to 25% | 76 to 100% |
| COc1ncc(F)c(/N=N/c2c(Cl)cccc2Cl)n1 [Compound 1097] | 0 to 25% | 0 to 25% | 0 to 25% | 26 to 50% |
| Oc1ncc(F)c(NNc2ccccc2Cl)n1 [Compound 1098] | 0 to 25% | 0 to 25% | 0 to 25% | 0 to 25% |
| C=CCOc1ncc(F)c(/N=N/c2ccccc2F)n1 [Compound 1099] | 0 to 25% | 0 to 25% | 0 to 25% | 0 to 25% |
| C=CCOc1ncc(F)c(/N=N/c2ccc(Br)cc2)n1 [Compound 1100] | 0 to 25% | 0 to 25% | 26 to 50% | 26 to 50% |
| CS(=O)(=O)Nc1nc(O)ncc1F [Compound 1101] | 0 to 25% | 0 to 25% | 0 to 25% | 0 to 25% |
| COc1ccccc1S(=O)(=O)Nc1nc(O)ncc1F [Compound 1102] | 0 to 25% | 0 to 25% | 26 to 50% | 26 to 50% |
| O=S(=O)(Nc1nc(O)ncc1F)c1ccccc1Cl [Compound 1103] | 0 to 25% | 0 to 25% | 0 to 25% | 0 to 25% |
